# In patent US20220112187A1, “PYRAZOLOPYRIDINE AMINE COMPOUNDS FOR THE TREATMENT OF AUTOIMMUNE DISEASE” (Hoffmann-La Roche Inc., priority 2018, published 2022):
# Target: T1, human TLR9 (Homo sapiens, UniProt Q9NR96)
# T1 sequence (Q9NR96 26-1032): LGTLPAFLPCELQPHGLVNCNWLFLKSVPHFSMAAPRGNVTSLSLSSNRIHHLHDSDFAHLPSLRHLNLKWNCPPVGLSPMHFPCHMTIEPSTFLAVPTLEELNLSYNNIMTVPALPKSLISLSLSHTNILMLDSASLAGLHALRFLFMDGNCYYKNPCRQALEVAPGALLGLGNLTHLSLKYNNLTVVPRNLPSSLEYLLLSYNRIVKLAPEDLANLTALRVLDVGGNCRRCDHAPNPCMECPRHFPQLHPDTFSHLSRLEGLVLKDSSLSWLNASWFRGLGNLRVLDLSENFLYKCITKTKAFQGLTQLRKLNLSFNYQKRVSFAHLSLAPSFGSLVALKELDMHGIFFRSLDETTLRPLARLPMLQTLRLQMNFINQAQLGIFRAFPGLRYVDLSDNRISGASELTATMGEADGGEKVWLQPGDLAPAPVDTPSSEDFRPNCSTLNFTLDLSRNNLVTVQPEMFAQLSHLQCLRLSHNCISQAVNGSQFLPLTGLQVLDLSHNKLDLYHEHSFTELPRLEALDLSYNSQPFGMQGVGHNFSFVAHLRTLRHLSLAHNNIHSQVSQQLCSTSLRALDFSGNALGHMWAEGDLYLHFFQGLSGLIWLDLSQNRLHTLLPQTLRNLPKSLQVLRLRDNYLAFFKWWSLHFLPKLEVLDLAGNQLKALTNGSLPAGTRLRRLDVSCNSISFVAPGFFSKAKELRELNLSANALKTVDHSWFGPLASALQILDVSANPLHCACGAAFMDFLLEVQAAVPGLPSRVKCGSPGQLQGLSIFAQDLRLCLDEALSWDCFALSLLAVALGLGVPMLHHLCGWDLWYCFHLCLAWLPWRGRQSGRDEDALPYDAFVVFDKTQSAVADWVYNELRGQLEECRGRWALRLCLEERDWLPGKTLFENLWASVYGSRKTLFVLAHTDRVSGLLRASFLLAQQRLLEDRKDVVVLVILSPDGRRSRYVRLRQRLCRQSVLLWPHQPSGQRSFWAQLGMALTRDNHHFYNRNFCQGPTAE
# Assay: HEK293-Blue-hTLR-9 cells assay (SEAP reporter, ODN2006 stimulation)
# Assay type: cell-based
# Details: HEK293-Blue-hTLR9 cells, ODN2006 ligand, 20 hrs incubation
# Description: A stable HEK293-Blue-hTLR-9 cell line was purchased from InvivoGen (Cat. #: hkb-htlr9, San Diego, Calif., USA). These cells were originally designed for studying the stimulation of human TLR9 by monitoring the activation of NF-κB. A SEAP (secreted embryonic alkaline phosphatase) reporter gene was placed under the control of the IFN-β minimal promoter fused to five NF-κB and AP-1-binding sites. The SEAP was induced by activating NF-κB and AP-1 via stimulating HEK-Blue hTLR9 cells with TLR9 ligands. Therefore the reporter expression was declined by TLR9 antagonist under the stimulation of a ligand, such as ODN2006 (Cat. #: tlr1-2006-1, Invivogen, San Diego, Calif., USA), for incubation of 20 hrs. The cell culture supernatant SEAP reporter activity was determined using QUANTI-Blue™ kit (Cat. #: rep-qb1, Invivogen, San Diego, Calif., USA) at a wavelength of 640 nm, a detection medium that turns purple or blue in the presence of alkaline phosphatase.
# HEK293-Blue-hTLR9 cells were incubated at a density of 250,000˜450,000 cells/mL in a volume of 170 μL in a 96-well plate in Dulbecco's Modified Eagle's medium (DMEM) containing 4.5 g/L glucose, 50 U/mL penicillin, […], […], 2 mM L-glutamine, 10% (v/v) heat-inactivated fetal bovine serum with addition of 20 μL test compound in a serial dilution in the presence of final DMSO at 1% and 10 μL of 20 uM ODN2006 in above DMEM, perform incubation under 37° C. in a CO2 incubator for 20 hrs. Then 20 μL of the supernatant from each well was incubated with 180 μL Quanti-blue substrate solution at 37° C. for 2 hrs and the absorbance was read at 620-655 nm using a spectrophotorneter. The signalling pathway that TLR9 activation leads to downstream NF-κB activation has been widely accepted, and therefore similar reporter assay was modified for evaluating TLR9 antagonist.
row,IC50 [µM],SMILES
1,0.12,"C[C@@H]1CN(c2ccc(C#N)n3nccc23)C[C@H](CN2CC3CCNCC3C2)O1 (stereo partly drawn) [Example 49, 4-[(2S,6R)-2-(1,3,3a,4,5,6,7,7a-octahydropyrrolo[3,4-c]pyridin-2-ylmethyl)-6-methyl-morpholin-4-yl]pyrazolo[1,5-a]pyridine-7-carbonitrile]"
2,0.23,"CC1CC(N)CCN1C[C@H]1CN(c2ccc(C#N)n3nccc23)C[C@@H](C)O1 (stereo partly drawn) [Example 51, 4-[(2S,6R)-2-[(4-amino-2-methyl-1-piperidyl)methyl]-6-methyl-morpholin-4-yl]pyrazolo[1,5-a]pyridine-7-carbonitrile]"
3,0.26,"C[C@@H]1CN(c2ccc(C#N)n3nccc23)C[C@H](CN2CC3CNCCC32)O1 (stereo partly drawn) [Example 52, 4-[(2S,6R)-2-(3,7-diazabicyclo[4.2.0]octan-7-ylmethyl)-6-methyl-morpholin-4-yl]pyrazolo[1,5-a]pyridine-7-carbonitrile]"
4,0.16,"C[C@@H]1CN(c2ccc(C#N)n3nccc23)C[C@H](CN2CCC3(CCCN3)CC2)O1 [Example 53, 4-[(2S,6R)-2-(1,8-diazaspiro[4.5]decan-8-ylmethyl)-6-methyl-morpholin-4-yl]pyrazolo[1,5-a]pyridine-7-carbonitrile]"
5,0.51,"C[C@@H]1CN(c2ccc(C#N)n3nccc23)C[C@H](CN2CCC(N3CCCC3)CC2)O1 [Example 54, 4-[(2R,6S)-2-methyl-6-[(4-pyrrolidin-1-yl-1-piperidyl)methyl]morpholin-4-yl]pyrazolo[1,5-a]pyridine-7-carbonitrile]"
6,25,"C[C@@H]1CN(c2ccc(C#N)n3nccc23)C[C@H](CN2CCC23CNC3)O1 [Example 55, 4-[(2S,6R)-2-(1,6-diazaspiro[3.3]heptan-1-ylmethyl)-6-methyl-morpholin-4-yl]pyrazolo[1,5-a]pyridine-7-carbonitrile]"
7,0.85,"C[C@@H]1CN(c2ccc(C#N)n3nccc23)C[C@H](CN2CC3CCNCC32)O1 (stereo partly drawn) [Example 56, 4-[(2S,6R)-2-(3,8-diazabicyclo[4.2.0]octan-8-ylmethyl)-6-methyl-morpholin-4-yl]pyrazolo[1,5-a]pyridine-7-carbonitrile]"
8,1.5,"C[C@@H]1CN(c2ccc(C#N)n3nccc23)C[C@H](CN2CCNCC2Cc2ccccc2)O1 (stereo partly drawn) [Example 59, 4-[(2S,6R)-2-[(2-benzylpiperazin-1-yl)methyl]-6-methyl-morpholin-4-yl]pyrazolo[1,5-a]pyridine-7-carbonitrile]"
9,0.18,"C[C@@H]1CN(c2ccc(C#N)n3nccc23)C[C@H](CN2CCC3(CC2)CNCCO3)O1 [Example 60, 4-[(2R,6S)-2-methyl-6-(1-oxa-4,9-diazaspiro[5.5]undecan-9-ylmethyl)morpholin-4-yl]pyrazolo[1,5-a]pyridine-7-carbonitrile]"
10,6.1,"C[C@@H]1CN(c2ccc(C#N)n3nccc23)C[C@H](CN2CCCC3CNCC32)O1 (stereo partly drawn) [Example 61, 4-[(2S,6R)-2-(2,3,4,4a,5,6,7,7a-octahydropyrrolo[3,4-b]pyridin-1-ylmethyl)-6-methyl-morpholin-4-yl]pyrazolo[1,5-a]pyridine-7-carbonitrile]"
11,2.4,"C[C@@H]1CN(c2ccc(C#N)n3nccc23)C[C@H](CN2CC[C@@H]3CNCC32)O1 (stereo partly drawn) [Example 62, 4-[(2R,6S)-2-methyl-6-[[cis-(3aR,6aR)-3,3a,4,5,6,6a-hexahydro-2H-pyrrolo[3,4-b]pyrrol-1-yl]methyl]morpholin-4-yl]pyrazolo[1,5-a]pyridine-7-carbonitrile]"
12,5.9,"C[C@@H]1CN(c2ccc(C#N)n3nccc23)C[C@H](CN2CCC[C@@H]3NCCC32)O1 (stereo partly drawn) [Example 63, 4-[(2R,6S)-2-methyl-6-[[cis-(3aS,7aS)-1,2,3,3a,5,6,7,7a-octahydropyrrolo[3,2-b]pyridin-4-yl]methyl]morpholin-4-yl]pyrazolo[1,5-a]pyridine-7-carbonitrile]"
13,2.2,"C[C@@H]1CN(c2ccc(C#N)n3nccc23)C[C@H](CN2CCCC3NCCCC32)O1 (stereo partly drawn) [Example 64, 4-[(2S,6R)-2-(3,4,4a,5,6,7,8,8a-octahydro-2H-1,5-naphthyridin-1-ylmethyl)-6-methyl-morpholin-4-yl]pyrazolo[1,5-a]pyridine-7-carbonitrile]"
14,0.087,"C[C@@H]1CN(c2ccc(C#N)n3ncc(F)c23)C[C@H](CN2CCCC3(CCNCC3)C2)O1 [Example 67, 4-[(2S,6R)-2-(2,9-diazaspiro[5.5]undecan-2-ylmethyl)-6-methyl-morpholin-4-yl]-3-fluoro-pyrazolo[1,5-a]pyridine-7-carbonitrile]"
15,0.11,"C[C@@H]1CN(c2ccc(C#N)n3ncc(F)c23)C[C@H](CN2CCCC3(CCNC3)C2)O1 (stereo partly drawn) [Example 68, 3-fluoro-4-[(2S,6R)-2-(2,7-diazaspiro[4.5]decan-7-ylmethyl)-6-methyl-morpholin-4-yl]pyrazolo[1,5-a]pyridine-7-carbonitrile]"
16,0.13,"C[C@@H]1CN(c2ccc(C#N)n3ncc(F)c23)C[C@H](CN2CCC3(CCCNC3)C2)O1 (stereo partly drawn) [Example 69, 3-fluoro-4-[(2S,6R)-2-(2,9-diazaspiro[4.5]decan-2-ylmethyl)-6-methyl-morpholin-4-yl]pyrazolo[1,5-a]pyridine-7-carbonitrile]"
17,0.2,"C[C@@H]1CN(c2ccc(C#N)n3nccc23)C[C@H](CN2CCC3NCC3C2)O1 (stereo partly drawn) [Example 70, 4-[(2S,6R)-2-(3,7-diazabicyclo[4.2.0]octan-3-ylmethyl)-6-methyl-morpholin-4-yl]pyrazolo[1,5-a]pyridine-7-carbonitrile]"
18,0.51,"C[C@@H]1CN(c2ccc(C#N)n3nccc23)C[C@H](CN2CCOC3(CCNCC3)C2)O1 [Example 71, 4-[(2R,6S)-2-methyl-6-(1-oxa-4,9-diazaspiro[5.5]undecan-4-ylmethyl)morpholin-4-yl]pyrazolo[1,5-a]pyridine-7-carbonitrile]"
19,0.22,"C[C@@H]1CN(c2ccc(C#N)n3nccc23)C[C@H](CN2CCC(N)(c3ccccc3)CC2)O1 [Example 73, 4-[(2S,6R)-2-[(4-amino-4-phenyl-1-piperidyl)methyl]-6-methyl-morpholin-4-yl]pyrazolo[1,5-a]pyridine-7-carbonitrile]"

row,SMILES,IC50 [µM]
1,"C[C@@H]1CN(c2ccc(C#N)n3nccc23)C[C@H](CN2C3CNCC2COC3)O1 [Example 57, 4-[(2R,6S)-2-methyl-6-(3-oxa-7,9-diazabicyclo[3.3.1]nonan-9-ylmethyl)morpholin-4-yl]pyrazolo[1,5-a]pyridine-7-carbonitrile]",10
2,"C[C@@H]1CN(c2ccc(C#N)n3nccc23)C[C@H](CN2C3COCC2CC(N)C3)O1 (stereo partly drawn) [Example 58, 4-[(2S,6R)-2-[(7-amino-3-oxa-9-azabicyclo[3.3.1]nonan-9-yl)methyl]-6-methyl-morpholin-4-yl]pyrazolo[1,5-a]pyridine-7-carbonitrile]",0.39
3,"C[C@@H]1CN(c2ccc(C#N)n3nccc23)C[C@H](CN2C3CCCC2CC(N)C3)O1 (stereo partly drawn) [Example 65, Endo-4-[(2S,6R)-2-[(3-amino-9-azabicyclo[3.3.1]nonan-9-yl)methyl]-6-methyl-morpholin-4-yl]pyrazolo[1,5-a]pyridine-7-carbonitrile]",0.14
4,"C[C@@H]1CN(c2ccc(C#N)n3nccc23)C[C@H](CN2C3CCCC2CC(N)C3)O1 (stereo partly drawn) [Example 66, Exo-4-[(2S,6R)-2-[(3-amino-9-azabicyclo[3.3.1]nonan-9-yl)methyl]-6-methyl-morpholin-4-yl]pyrazolo[1,5-a]pyridine-7-carbonitrile]",0.12
